For 27 compounds, EC50 and Emax results are on record in patent US20080261977A1, “Pyrimidine Derivatives as Cannabinoid Receptor Modulators” (priority 2004, published 2008).

Structures can show the parent of a compound that is named as a salt. Where two headings read alike, the source gives them in different places.

The assay has as its target T1, human cannabinoid CB2 receptor (Homo sapiens, UniProt P34972).
T1 construct: expressed in transfected cells; host or cells: Saccharomyces cerevisiae strain MMY23 (cassette integrated at the ura3 locus; chimeric Gpa1/Gαi3)
Briefly: Cannabinoid CB2 receptor agonist activity, yeast (Saccharomyces cerevisiae) cells expressing the receptor, FDGlu fluorescence. It is filed as cell-based. To be noted: for Emax: read-out: efficacy (Emax relative to HU210) at the cloned human cannabinoid CB2 receptor. As for the experimental part:
The cannabinoid CB2 receptor agonist activity of the compounds of formula (I) was determined in accordance with the following experimental method.
Yeast (Saccharomyces cerevisiae) cells expressing the human cannabinoid CB2 receptor were generated by integration of an expression cassette into the ura3 chromosomal locus of yeast strain MMY23. This cassette consisted of DNA sequence encoding the human CB2 receptor flanked by the yeast GPD promoter to the 5′ end of CB2 and a yeast transcriptional terminator sequence to the 3′ end of CB2. MMY23 expresses a yeast/mammalian chimeric G-protein alpha subunit in which the C-terminal 5 amino acids of Gpa1 are replaced with the C-terminal 5 amino acids of human Gαi3 (as described in Brown et al. (2000), Yeast 16:11-22). Cells were grown at 30° C. in liquid Synthetic Complete (SC) yeast media (Guthrie and Fink (1991), Methods in Enzymology, Vol. 194) lacking uracil, tryptophan, adenine and leucine to late logarithmic phase (approximately 6 OD600/ml).
Agonists were prepared as 10 mM stocks in DMSO. EC50 values (the concentration required to produce 50% maximal response) were estimated using dilutions of between 3- and 5-fold (BiomekFX, Beckman) into DMSO. Agonist solutions in DMSO (1% final assay volume) were transferred into black, clear bottom, microtitre plates from NUNC (96- or 384-well). Cells were suspended at a density of 0.2 OD600/ml in SC media lacking histidine, uracil, tryptophan, adenine and leucine and supplemented with 10 mM 3-aminotriazole, 0.1M sodium phosphate pH 7.0, and […] fluorescein di-β-D-glucopyranoside (FDGlu). This mixture (50 ul per well for 384-well plates, 200 ul per well for 96-well plates) was added to agonist in the assay plates (Multidrop 384, Labsystems). After incubation at 30° C. for 24 hours, fluorescence resulting from degradation of FDGlu to fluorescein due to exoglucanase, an endogenous yeast enzyme produced during agonist-stimulated cell growth, was determined using a Spectrofluor microtitre plate reader (Tecan; excitation wavelength: 485 nm; emission wavelength: 535 nm). Fluorescence was plotted against compound concentration and iteratively curve fitted using a four parameter fit to generate a concentration effect value. Efficacy (Emax) was calculated from the equation
Emax=Max[compound X]−Min[compound X]/Max[HU210]−Min[HU210]×100%
where Max[compound X] and Min[compound X] are the fitted maximum and minimum respectively from the concentration effect curve for compound X, and Max[HU210] and Min[HU210] are the fitted maximum and minimum respectively from the concentration effect curve for (6aR,10aR)-3-1,1′-Dimethylheptyl)-6a,7,10,10a-tetrahydro-1-hydroxy-6,6-dimethyl-6H-dibenzo[b,d]pyran-9-methanol (HU210; available from Tocris). Equieffective molar ratio (EMR) values were calculated from the equation
Where EC50[compound X] is the EC50 of compound X and EC50[HU210] is the EC50 of HU210.

Where [1] appears, read: yeast agonist assay, read-out: EC50 at the cloned human cannabinoid CB2 receptor.

T1 sequence (P34972 whole entry): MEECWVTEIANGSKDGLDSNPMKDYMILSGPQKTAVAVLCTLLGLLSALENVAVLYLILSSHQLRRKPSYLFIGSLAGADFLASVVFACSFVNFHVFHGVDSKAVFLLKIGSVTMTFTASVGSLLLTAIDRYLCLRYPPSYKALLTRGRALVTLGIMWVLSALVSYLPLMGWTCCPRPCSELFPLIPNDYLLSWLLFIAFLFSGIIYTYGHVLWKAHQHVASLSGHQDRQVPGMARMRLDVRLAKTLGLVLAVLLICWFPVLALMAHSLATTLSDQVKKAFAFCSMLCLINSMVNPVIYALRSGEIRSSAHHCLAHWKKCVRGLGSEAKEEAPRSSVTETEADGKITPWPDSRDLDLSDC

Consider `FC(F)(F)c1nc(Nc2cccc(Cl)c2)ncc1CNC1CCOCC1` [Example 16, (3-Chlorophenyl)-{5-[(tetrahydro-pyran-4-ylamino)-methyl]-4-trifluoromethyl-pyrimidin-2-yl}-amine, formate], for which the EC50 – broadly, the concentration that produces a half-maximal response – under setting [1] is < 300 nM. In addition, where the note is “yeast agonist assay”, the maximal response (Emax) (commonly the maximal effect, on the per cent scale that the assay sets) was > 50%.
Turning to `COCCNCc1cnc(Nc2cccc(Cl)c2)nc1C(F)(F)F` [Example 17, (3-Chlorophenyl)-{5-[(2-methoxy-ethylamino)-methyl]-4-trifluoromethyl-pyrimidin-2-yl}-amine, formate], the concentration giving a half-maximal response (EC50) under setting [1] was < 300 nM. For the setting “yeast agonist assay”, the maximum response (Emax) is > 50%.
For `FC(F)(F)c1nc(Nc2cccc(Cl)c2)ncc1CNCC1CCC1` [Example 18, (3-Chlorophenyl)-{5-[(cyclobutylmethylamino)-methyl]-4-trifluoromethyl-pyrimidin-2-yl}-amine,formate] the same measures were < 300 nM and > 50%.
With `CCCNCc1cnc(Nc2cccc(Cl)c2)nc1C(F)(F)F` [Example 19, (3-Chlorophenyl)-(5-propylaminomethyl-4-trifluoromethyl-pyrimidin-2-yl)-amine,formate], the half-maximal effective concentration (EC50) under setting [1] is < 300 nM. Further, the Emax (yeast agonist assay) was > 50%.
Take `CC(C)(C)CNCc1cnc(Nc2cccc(Cl)c2)nc1C(F)(F)F` [Example 20, (3-Chlorophenyl)-{5-[(2,2-dimethylpropylamino)-methyl]-4-trifluoromethyl-pyrimidin-2-yl}-amine]: the EC50 was < 300 nM and the Emax is > 50%.
Consider `FC(F)(F)c1nc(Nc2cccc(Cl)c2)ncc1CNC1CCC1` [Example 21, (3-Chlorophenyl)-(5-cyclobutylaminomethyl-4-trifluoromethyl-pyrimidin-2-yl)-amine], for which the EC50 was < 300 nM and the Emax was > 50%.
As to `CCCCNCc1cnc(Nc2cccc(Cl)c2)nc1C(F)(F)F` [Example 22, (3-Chlorophenyl)-(5-butylaminomethyl-4-trifluoromethyl-pyrimidin-2-yl)-amine,formate], the EC50 under setting [1] is < 300 nM. Moreover, the Emax (yeast agonist assay) was > 50%.
Turning to `FC(F)(F)c1nc(Nc2cccc(Cl)c2)ncc1CNC1CC1` [Example 23, (3-Chlorophenyl)-(5-cyclopropylaminomethyl-4-trifluoromethyl-pyrimidin-2-yl)-amine,formate], the 50% effective concentration (EC50) under setting [1] is < 300 nM. Under “yeast agonist assay”, the Emax is > 50%.
As for `CC(C)CCNCc1cnc(Nc2cccc(Cl)c2)nc1C(F)(F)F` [Example 24, (3-Chlorophenyl)-{5-[(3-methylbutylamino)-methyl]-4-trifluoromethyl-pyrimidin-2-yl}-amine,formate], the EC50 under setting [1] was < 300 nM. In addition, the Emax (yeast agonist assay) was > 50%.
On to `FC(F)(F)c1nc(Nc2cccc(Cl)c2)ncc1CNCC1CC1` [Example 25, (3-Chlorophenyl)-{5-[(cyclopropylmethylamino)-methyl]-4-trifluoromethyl-pyrimidin-2-yl}-amine,formate], for which the EC50 under setting [1] was < 300 nM. Also, the Emax (yeast agonist assay) is > 50%.
Consider `O=S1(=O)CCC(NCc2cnc(Nc3cccc(Cl)c3)nc2C(F)(F)F)CC1` [Example 26, (3-Chlorophenyl)-{5-[(1,1-dioxo-hexahydro-1l^6-thiopyran-4-ylamino)-methyl]-4-trifluoromethyl-pyrimidin-2-yl}-amine, formate], for which the maximal effect (Emax) is > 50%. Moreover, the EC50 under setting [1] is < 300 nM.
Turning to `CC(C)CNCc1cnc(Nc2ccc(Cl)cc2Cl)nc1C(F)(F)F` [Example 27, (2,4-Dichlorophenyl)-{5-[(isobutylamino)-methyl]-4-trifluoromethyl-pyrimidin-2yl}-amine], the EC50 is < 300 nM and the Emax is > 50%.
Taken in the same sequence, the figures for `FC(F)(F)c1nc(Nc2ccc(Cl)cc2Cl)ncc1CNCC1CC1` [Example 28, (2,4-Dichlorophenyl)-{5-[(cyclopropylmethylamino)-methyl]-4-trifluoromethyl-pyrimidin-2-yl}-amine] were < 300 nM and > 50%.
As for `FC(F)(F)c1nc(Nc2ccc(Cl)cc2Cl)ncc1CNCC1CCC1` [Example 29, (2,4-Dichlorophenyl)-{5-[(cyclobutylmethylamino)-methyl]-4-trifluoromethyl-pyrimidin-2-yl}-amine,formate], the 50% effective concentration (EC50) under setting [1] was < 300 nM. Moreover, the maximal effect (Emax) (yeast agonist assay) is > 50%.
With `FC(F)(F)c1nc(Nc2ccc(Cl)cc2Cl)ncc1CNC1CC1` [Example 30, (2,4-Dichlorophenyl)-(5-cyclopropylaminomethyl-4-trifluoromethyl-pyrimidin-2-yl)-amine], the concentration giving a half-maximal response (EC50) was < 300 nM and the Emax was > 50%.
For `FC(F)(F)c1nc(Nc2cccc(Cl)c2)ncc1CNCc1cccnc1` [Example 31, (3-Chlorophenyl)-(5-{[(pyridin-3-ylmethyl)-amino]-methyl}-4-trifluoromethyl-pyrimidin-2-yl}-amine,formate], under setting [1], the 50% effective concentration (EC50) was < 300 nM. Further, the Emax (yeast agonist assay) is > 50%.
On to `CC(C)(C)CNCc1cnc(Nc2ccc(Cl)cc2Cl)nc1C(F)(F)F` [Example 32, (2,4-Dichlorophenyl)-{5-[(2,2-dimethylpropylamino)-methyl]-4-trifluoromethyl-pyrimidin-2-yl}-amine], for which the concentration for a half-maximal effect (EC50) is < 300 nM and the Emax was > 50%.
Consider `COCCNCc1cnc(Nc2ccc(Cl)cc2Cl)nc1C(F)(F)F` [Example 33, (2,4-Dichlorophenyl)-{5-[(2-methoxy-ethylamino)-methyl]-4-trifluoromethyl-pyrimidin-2-yl}-amine], for which the EC50 under setting [1] was < 300 nM. Also, where the note is “yeast agonist assay”, the Emax is > 50%.
As for `FC(F)(F)c1nc(Nc2cccc(Cl)c2)ncc1CNC1CCCC1` [Example 34], the EC50 was < 300 nM and the Emax was > 50%.
Taken in the same sequence, the figures for `FC(F)(F)c1nc(Nc2ccc(Cl)cc2Cl)ncc1CN1CCOCC1` [Example 35, (2,4-Dichlorophenyl)-(5-morpholin-4-ylmethyl-4-trifluoromethyl-pyrimidin-2-yl)-amine] were < 300 nM and > 50%.
Take `CC(C)CNCc1cnc(Nc2cccc(F)c2)nc1C(F)(F)F` [Example 36, (3-Fluorophenyl)-{5-[(isobutylamino)-methyl]-4-trifluoromethyl-pyrimidin-2yl}-amine, formate]: the 50% effective concentration (EC50) under setting [1] was < 300 nM. Further, under “yeast agonist assay”, the Emax is > 50%.
Consider `Fc1cccc(Nc2ncc(CNCC3CCC3)c(C(F)(F)F)n2)c1` [Example 37, (3-Fluorophenyl)-{5-[(cyclobutylmethylamino)-methyl]-4-trifluoromethyl-pyrimidin-2-yl}-amine,formate], for which the EC50 under setting [1] is < 300 nM. Also, the maximal effect (Emax) (yeast agonist assay) is > 50%.
As for `Fc1cccc(Nc2ncc(CNC3CC3)c(C(F)(F)F)n2)c1` [Example 38, (3-Fluorophenyl)-(5-cyclopropylaminomethyl-4-trifluoromethyl-pyrimidin-2-yl)-amine], under setting [1], the half-maximal effective concentration (EC50) is < 300 nM. Besides, for the setting “yeast agonist assay”, the Emax was > 50%.
For `FC(F)(F)c1nc(Nc2cccc(Cl)c2)ncc1CN1CCCCC1` [Example 39, (3-Chlorophenyl)-(5-piperidin-1-ylmethyl-4-trifluoromethyl-pyrimidin-2-yl)-amine,formate], the Emax was > 50%. For the same compound, under setting [1], the concentration giving a half-maximal response (EC50) lay within 300 to 1000 nM.
Turning to `FC(F)(F)c1nc(Nc2cccc(Cl)c2)ncc1CN1CCCC1` [Example 40, (3-Chlorophenyl)-(5-pyrrolidin-1-ylmethyl-4-trifluoromethyl-pyrimidin-2-yl)-amine, formate], the maximal effect (Emax) was > 50%. Besides, under setting [1], the concentration giving a half-maximal response (EC50) is 300 to 1000 nM.
On to `Fc1ccc(CNCc2cnc(Nc3cccc(Cl)c3)nc2C(F)(F)F)cc1` [Example 41, (3-Chlorophenyl)-{5-[(4-fluorobenzylamino)-methyl]-4-trifluoromethyl-pyrimidin-2-yl)-amine,formate], for which the maximal effect (Emax) was > 50%. The half-maximal effective concentration (EC50) under setting [1] fell in the range of 300 to 1000 nM.
`CN(Cc1cnc(Nc2cccc(Cl)c2)nc1C(F)(F)F)CC1CCOCC1` [Example 42, (3-Chlorophenyl)-(5-{[methyl-(tetrahydro-pyran-4-ylmethyl)-amino]-methyl}-4-trifluoromethyl-pyrimidin-2-yl)-amine]: the Emax was > 50%. For the same compound, under setting [1], the EC50 was 300 to 1000 nM.
